Read-outs that look alike come from different tables or passages of the source.
How the values were obtained:
[1] = system: HCT-15 (colorectal adenocarcinoma); test: cells; format: cell-based, human; details: for IC50: Homo sapiens, HCT-15, 24 h, MTT
Method: (§1) Breast adenocarcinoma cells (MCF-7; DSMZ: ACC 115), colon adenocarcinoma cells (HTC-15; DSMZ: CCL-225), and prostate cells (DU-145; ATCC: HRB-81) were cultured in RPMI 1640 medium.
(§2) Cells were seeded at an appropriate density to promote optimal growth, and the culture medium was replaced every 48 h. Once cells reached 80–90% confluence, subculture was performed using 0.25% trypsin-EDTA to dissociate the cells, by 2 min and put inside of chamber during 5 min, according to the protocol provided by the biobanks. The cell lines were maintained at 37 °C in a humidified incubator with 5% CO2 and 95% humidity.
(§3) Cells were seeded in 96-well plates (HepG-2: 2.5 ×10^4 cells; HCT-15: 2.5 × 10^4 cells/mL; MCF-7: 2.5 × 10^4 cells/mL; SH-SY5Y: 5.0 × 10^4 cells/mL; FL83B: 5.0 × 10^4 cell/mL; DU-145: 5.0 × 10^4 cell/mL). Cancer cell lines were exposed to compounds (100 μM) for 24 h and vehicle/controls were included to assess potential solvent interference. Cell viability was assessed using MTT assay. Then, the culture medium was removed and 100 μL of MTT (0.5 mg/mL) was added to each cell. Cells were incubated for 1 h in the dark under the same culture condition (37 °C, 5% CO2, 95% humidity). After incubation, the intracellular formazan crystals were solubilized with 100 μL DMSO and, after […], the absorbance was measured at 570 nm using a microplate reader (Synergy H1). […] Results were expressed as a percentage of control untreated cells and the half-maximal inhibitory concentration (IC50) values were determined using nonlinear regression analysis (GraphPad Prism, 8.1, GraphPad Software, San Diego, CA, USA).

FL83B hepatocytes = test: Cytotoxicity (in vitro hepatotoxicity) MTT assay, FL83B; format: cell-based; details: 24 h, normal murine hepatocytes
Method: (§4) Hepatocyte cells (FL83B; ATCC: CLR-2390) were cultured in F-12K medium. Human neuroblastoma (SH-SY5Y; ATCC: CRL-2266) cells were cultivated in DMEM/F12 medium. All media were supplemented with fetal bovine serum (10%) (Biowest, Riverside, MO, USA) and 1% antibiotic/antimycotic solution (Biowest, Nuaill’e, France).
as §2, §3

[2] = system: SH-SY5Y neuroblastoma cell line; test: Cytotoxicity MTT assay, SH-SY5Y; format: cell-based, human; details: 24 h
Method: as §4, §2, §3

[3] = system: DU-145 (prostate adenocarcinoma); test: Cytotoxicity MTT assay, DU-145; format: cell-based, human; details: for IC50: 24 h, MTT
Method: as §1, §2, §3

[4] = system: MCF-7 (breast adenocarcinoma); test: cells; format: cell-based; details: for IC50: Homo sapiens, MCF7, 24 h, MTT
Method: as §1, §2, §3

[5] = system: differentiated SH-SY5Y neuroblastoma cells; test: Neuroprotective capacity on a Parkinson's disease cellular model (6-OHDA, MTT); details: 6-OHDA 100 μM, 24 h
Method: Only at these non-toxic concentrations (0.01–10 µM; 24 h) were the compounds subsequently tested for their neuroprotective potential in an in vitro PD damage model using differentiated SH-SY5Y neuroblastoma cells. The cells, previously differentiated to obtain a dopaminergic neuronal phenotype [52], were treated with compounds in the presence of the neurotoxin 6-OHDA (100 µM). The cells’ viability was estimated using the 3-(4,5-dimethylthiazol-2-yl)−2,5-diphenyltetrazolium bromide (MTT) assay.
Cells were differentiated to obtain dopaminergic neuronal phenotype according to [52], with slight modifications. […] At the end of the 8th day, the cytotoxicity assay was performed.
Cell viability on SH-SY5Y cells was evaluated after exposure to the compounds at 10 μM for 24 h. […] The cell viability and neuroprotective effects were assessed by a colorimetric assay based on the reduction of tetrazolium salts MTT (VWR, Solon, OH, USA) to blue formazan products, according to [61]. Saponin (Sigma-Aldrich, Steinheim, Germany) was used as a positive control for inducing cellular death. The results were expressed as a percentage of the control (untreated cells).

[6] = target: T1, Butyrylcholinesterase (from equine serum) (Equus caballus, UniProt P81908); test: biochemical; format: biochemical; details: for Ki: read-out: BChE Ki; for inhibition at 50 µM: read-out: BChE Inhibition (%)
T1 construct: Butyrylcholinesterase (from equine serum); purchased Sigma; host or cells: equine serum
Method: (§5) The inhibitory effects of the compounds on AChE and BChE were assessed by Elman’s method.
(§6) Acetylcholinesterase (from Electrophorus electricus), Butyrylcholinesterase (from equine serum), 5,5′-dithiobis-(2-nitrobenzoic acid) (DTNB), and acetylthiocholine iodide were purchased from Sigma.
Preparation of 50 mM Tris-HCl buffer solutions: Tris(hydroxymethyl)-aminomethane (606 mg) was dissolved in bidestilled water (100 mL) and adjusted with HCl to a pH of 8.0 ± 0.1. Buffers were freshly prepared and stored in the refrigerator. AChE solution 2.005 U/mL: The enzyme (271 U/mg, 0.037 mg) was dissolved in freshly prepared buffer pH 8.0 (5 mL) containing NaN3 (0.98 mg). BChE solution 2.040 U/mL: The enzyme (7.54 U/mg, 1.353 mg) was dissolved in freshly prepared buffer pH 8.0 (5 mL) containing NaN3 (0.98 mg). DTNB solution 3 mM: DTNB (23.8 mg) was dissolved in freshly prepared buffer pH 8.0 (20 mL) containing NaCl (116.8 mg) and MgCl2 (38.0 mg). ATChI solution 15 mM: ATChI (43.4 mg) was dissolved in bidestilled water (10 mL). All solutions were stored in Eppendorf caps in the refrigerator or in the freezer, if necessary. […] The final concentrations for the enzymatic assay were obtained by diluting the stock solution with bidistilled water.
BMG Labtech Spectrostar Omega plate reader working in the slow kinetics mode and measuring the absorbance at a distinct wavelength of λ = 412 nm with center scanning mode was used for the enzymatic studies. In short, a mixture of a DTNB solution (125 µL, 3 mM in 50 mM Tris-HCl buffer, pH 8), enzyme solution (25 µL, 2 U/mL), and compounds solutions (25 µL, 3 different concentrations and water as a blank) was incubated at 30 °C for 20 min. The substrate (25 µL, [ATChI] = 0.9375 mM, 0.625 mM, […], 0.1875 mM) was added to start the enzymatic reaction. The absorbance data were recorded under a controlled temperature of 30 °C for 30 min at 1 min intervals at l = 412 nm. The relative inhibition was determined as the quotient of the slopes (compound divided by blank) of the linear ranges (10 repetitions). Galantamin was used as control substance. To determine the kinetic constants, standard linearization methods were used after applying an internal standard (Dixon/Cornish–Bowden plots) (triplicates).

[7] = target: T2, Acetylcholinesterase (from Electrophorus electricus) (Electrophorus electricus, UniProt O42275); test: biochemical; details: read-out: AChE Inhibition (%)
T2 construct: purchased Sigma
Method: as §5, §6
Preparation of 50 mM Tris-HCl buffer solutions: Tris(hydroxymethyl)-aminomethane (606 mg) was dissolved in bidestilled water (100 mL) and adjusted with HCl to a pH of 8.0 ± 0.1. Buffers were freshly prepared and stored in the refrigerator. AChE solution 2.005 U/mL: The enzyme (271 U/mg, 0.037 mg) was dissolved in freshly prepared buffer pH 8.0 (5 mL) containing NaN3 (0.98 mg). BChE solution 2.040 U/mL: The enzyme (7.54 U/mg, 1.353 mg) was dissolved in freshly prepared buffer pH 8.0 (5 mL) containing NaN3 (0.98 mg). DTNB solution 3 mM: DTNB (23.8 mg) was dissolved in freshly prepared buffer pH 8.0 (20 mL) containing NaCl (116.8 mg) and MgCl2 (38.0 mg). […]
BMG Labtech Spectrostar Omega plate reader working in the slow kinetics mode and measuring the absorbance at a distinct wavelength of λ = 412 nm with center scanning mode was used for the enzymatic studies. […] The absorbance data were recorded under a controlled temperature of 30 °C for 30 min at 1 min intervals at l = 412 nm. The relative inhibition was determined as the quotient of the slopes (compound divided by blank) of the linear ranges (10 repetitions). […]

T1 sequence (P81908 whole entry): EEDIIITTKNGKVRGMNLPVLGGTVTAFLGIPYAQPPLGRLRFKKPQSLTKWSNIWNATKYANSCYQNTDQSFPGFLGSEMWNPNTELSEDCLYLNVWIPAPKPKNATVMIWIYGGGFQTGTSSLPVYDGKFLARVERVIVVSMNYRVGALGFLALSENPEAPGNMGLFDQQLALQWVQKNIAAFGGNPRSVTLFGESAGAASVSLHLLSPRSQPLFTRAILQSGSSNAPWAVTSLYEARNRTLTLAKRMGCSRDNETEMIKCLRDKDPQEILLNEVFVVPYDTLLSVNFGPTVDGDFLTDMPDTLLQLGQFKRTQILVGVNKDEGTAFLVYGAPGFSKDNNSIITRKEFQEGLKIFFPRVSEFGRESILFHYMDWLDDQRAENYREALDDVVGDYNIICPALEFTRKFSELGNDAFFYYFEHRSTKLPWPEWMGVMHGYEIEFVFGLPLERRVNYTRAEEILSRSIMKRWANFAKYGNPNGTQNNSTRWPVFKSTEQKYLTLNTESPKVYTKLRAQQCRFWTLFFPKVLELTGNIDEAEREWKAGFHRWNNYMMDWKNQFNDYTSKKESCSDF
T2 sequence (O42275 24-633): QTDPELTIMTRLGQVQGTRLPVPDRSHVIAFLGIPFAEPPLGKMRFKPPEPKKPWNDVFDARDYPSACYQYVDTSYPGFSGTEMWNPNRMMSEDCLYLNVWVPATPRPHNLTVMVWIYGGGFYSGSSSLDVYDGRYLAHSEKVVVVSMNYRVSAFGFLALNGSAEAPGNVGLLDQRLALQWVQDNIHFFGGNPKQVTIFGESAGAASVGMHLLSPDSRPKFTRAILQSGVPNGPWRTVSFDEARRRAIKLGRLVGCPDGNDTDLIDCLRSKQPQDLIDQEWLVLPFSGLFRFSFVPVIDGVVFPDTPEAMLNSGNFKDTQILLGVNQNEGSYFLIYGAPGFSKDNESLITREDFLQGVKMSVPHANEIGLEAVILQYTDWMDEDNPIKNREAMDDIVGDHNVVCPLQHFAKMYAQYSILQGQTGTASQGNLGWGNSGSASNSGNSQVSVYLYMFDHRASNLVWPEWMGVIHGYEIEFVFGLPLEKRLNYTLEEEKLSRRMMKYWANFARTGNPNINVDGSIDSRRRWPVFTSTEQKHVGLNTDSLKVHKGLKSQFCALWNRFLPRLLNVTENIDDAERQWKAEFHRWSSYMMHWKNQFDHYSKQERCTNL

Structure (SMILES) | IC50 [1] [µM] | IC50 (FL83B hepatocytes; Mus musculus, FL83B) [µM] | IC50 ([2]; Homo sapiens, SH-SY5Y) [µM] | IC50 ([3]; Homo sapiens, DU-145) [µM] | IC50 [4] [µM] | other results
O=c1[nH]cc(F)c(=O)[nH]1 [5-Fluorouracil, reference compound] | 156 | > 100 |  |  |  | 
N.N.[Cl][Pt][Cl] [Cisplatin, reference compound] |  |  |  |  |  | IC50 [2]: 13.9 µM; IC50 [3]: > 100 µM; IC50 (FL83B hepatocytes): 25.7 µM
CC(=O)O[C@@H]1CN(C(C)=O)C(=O)[C@H](OC(C)=O)[C@H]1OCc1ccccc1 [Compound 3, N-acetyl 2,4-di-O-acetyl-3-O-benzyl-D-xylono-1,5-lactam] | > 100 |  | > 100 | > 100 | > 100 | 
NCCc1cc(O)c(O)cc1O [Compound 6-OHDA, 6-hydroxydopamine] |  |  |  |  |  | reduction of differentiated SH-SY5Y cells' viability [5]: 40%; viable cells, 6-OHDA alone ([5]; MTT, % of control): 61.3 ± 1.4 % of viable cells
CC(=O)O[C@@H]1[C@@H](OCc2ccccc2)[C@@H](CN=[N+]=[N-])O[C@H]1n1cnc2c(Cl)ncnc21 [Compound 7, 9-(2-O-Acetyl-5-azido-3-O-benzyl-5-deoxy-β-D-xylofuranosyl)-6-chloropurine] | 72.7 | 22.7 | > 100 | > 100 | > 100 | 
CC(=O)O[C@@H]1[C@@H](OCc2ccccc2)[C@@H](CN=[N+]=[N-])O[C@H]1n1cnc2ncnc(Cl)c21 [Compound 8, 7-(2-O-acetyl-5-azido-3-O-benzyl-5-deoxy-β-D-xylofuranosyl)-6-chloropurine] | > 100 |  | > 100 | > 100 | > 100 | 
CC(=O)O[C@@H]1[C@@H](OCc2ccccc2)[C@@H](CN=[N+]=[N-])O[C@H]1n1ccc(=O)[nH]c1=O [Compound 9, 1-(2-O-Acetyl-5-azido-3-O-benzyl-5-deoxy-β-D-xylofuranosyl)uracil] | > 100 |  | > 100 | > 100 | > 100 | 
CC(=O)OC1C(OCc2ccccc2)C(CNC(=NC(=O)OC(C)(C)C)NC(=O)OC(C)(C)C)OC1n1cnc2c(Cl)ncnc21 [Compound 10, 9-{2-O-acetyl-3-O-benzyl-5-deoxy-5-[N′,N′′-bis(tert-butoxycarbonyl)]guanidino-β-D-xylofuranosyl}-6-chloropurine] | > 100 | 73.7 | > 100 | 27.6 | > 100 | BChE inhibitory activity, fold higher than that of galantamine [6]: ca. 10 fold; BChE type of inhibition [6]: mixed-type; Ki ([6]; competitive component): 0.89 ± 0.08 µM; inhibition at 50 µM [6]: 83.8 ± 1.3%; BChE Ki′ ([6]; uncompetitive component): 2.96 ± 0.39 µM; Ki ([6]; uncompetitive component, listed as N^9 regioisomer): 2.96 µM; inhibition at 50 µM [7]: 39.1 ± 0.9%
CC(=O)OC1C(OCc2ccccc2)C(CNC(=NC(=O)OC(C)(C)C)NC(=O)OC(C)(C)C)OC1n1cnc2ncnc(Cl)c21 [Compound 11, 7-(2-O-acetyl-3-O-benzyl-5-deoxy-5-[N′,N′′-bis(tert-butoxycarbonyl)]guanidino-β-D-xylofuranosyl)-6-chloropurine] | 64.1 | 24.1 | 12.1 | 24.5 | 43.7 | effect against DU-145 cells, fold higher than cisplatin [3]: 4 fold; BChE Ki, fold higher than that of the N^9-counterpart [6]: ca. 2 fold; BChE inhibitory activity, fold higher than that of galantamine [6]: ~4 fold; BChE type of inhibition [6]: mixed-type; Ki ([6]; competitive component): 2.34 ± 0.2 µM; inhibition at 50 µM [6]: 65.2 ± 0.9%; BChE Ki′ ([6]; uncompetitive component): 10.6 ± 1.4 µM; inhibition at 50 µM [7]: 34.6 ± 1.4%; cytotoxicity in MCF-7 cells, fold lower than tamoxifen [4]: 1.6 fold
CC(=O)O[C@@H]1[C@@H](OCc2ccccc2)[C@@H](CNC(=NC(=O)OC(C)(C)C)NC(=O)OC(C)(C)C)O[C@H]1n1ccc(=O)[nH]c1=O [Compound 12, 1-(2-O-Acetyl-3-O-benzyl-5-deoxy-5-[N′,N′′-bis(tert-butoxycarbonyl)]guanidino-β-d-xylofuranosyl)uracil] | 76 | > 100 | > 100 | > 100 | > 100 | cytotoxicity against HCT-15, fold higher (IC50 fold lower) than 5-fluorouracil [1]: ca. 2 fold
COc1ccc2c3c1O[C@H]1C[C@@H](O)C=C[C@@]31CCN(C)C2 [Galantamine, reference compound] |  |  |  |  |  | BChE type of inhibition [6]: competitive; inhibition at 50 µM [6]: 52 ± 0.5%
